Assay results taken from paper PMC3636857, “Specific Activation of the G Protein-coupled Receptor BNGR-A21 by the Neuropeptide Corazonin from the Silkworm, Bombyx mori, Dually Couples to the Gq and Gs Signaling Cascades” (The Journal of Biological Chemistry, 2013).
Entries after “also recorded” stand apart in the source; their conditions may differ. Numbered stars: 1 amine (or outer) side, 2 acyl side, 3 side chain; on linkers, the order of the positions; unused ones are H or OH. Bridge positions count the residues as written; N and C are the ends. Square brackets hold non-standard residues; d marks the D form. Ends that are not written are not given here. Peptide text beside a SMILES is read from it. X1 = CC(=O)NC(C(=O)OC(C(C)C)C(N[*:1])C(=O)[*:2])C(O)C(C)C; rhodamine red = Rhodamine red fluorescent dye; PhLac = O=C(O)[CH](O)Cc1ccccc1; NMeT = CN[CH](C(=O)O)[CH](C)O; NMeA = CN[CH](C)C(=O)O; NMeDha = C=C(NC)C(=O)O

What was measured:
BNGR-A21 (BmCrzR) [1] = experiment: intracellular calcium measurement (fura-2) in HEK293 cells; assay type: cell-based, Bombyx mori; conditions: pretreatment with YM-254890 1 μM, U73122 10 μM, EGTA 5 mM, BAPTA-AM 50 μM or nifedipine 10 μM, corazonin (1 μM with YM-254890)
Experimental: (§1) The stable FLAG-A21- and BmFlag-A21-expressing HEK293 and Sf21 cells were washed twice with phosphate-buffered saline and resuspended at 5 × 10^6 cells/ml in Hanks' balanced salt solution. The cells were detached by a Nonenzymatic Cell Dissociation Solution (M&C Gene Technology, China) or 0.02% EGTA and then loaded with 3 μM Fura 2-AM (Dojindo Laboratories, Japan) for 30 min at 37 °C. Cells were washed twice in Hanks' solution and then resuspended in Hanks' solution at a concentration of 3 × 10^7 cells/ml. Calcium flux was measured using excitation wavelengths of 340 and 380 nm in a fluorescence spectrometer (Tecan Infinite 200 PRO, Switzerland).
(§2) FIGURE 4. Intracellular Ca^2+ influx. HEK293 (A) and Sf21 (B) cells, respectively, transfected with FLAG-A21 and BmFlag-A21 were measured in response to different concentrations of corazonin peptide using the fluorescent Ca^2+ indicator fura-2. C, effect of pretreatment of the Gq inhibitor on corazonin (1 μM)-mediated Ca^2+ influx in HEK293 cells. D, effects of pretreatment of calcium chelators (EGTA, 5 mM, and BAPTA-AM, 50 μM) and L-calcium channel (nefidipine, 10 μM) inhibitors on corazonin-mediated Ca^2+ influx in HEK293 cells. Effect of pretreatment of PLC inhibitor (U73122, 10 μM) on corazonin-mediated Ca^2+ influx in HEK293 (E) and Sf21 (F) cells. The figures are representative of more than three independent experiments.

BNGR-A21 (BmCrzR) [2] = assay type: cell-based, Bombyx mori
BmCrzR (BNGR-A21) [3] = experiment: ERK1/2 activation assay in HEK293 cells stably expressing BmCrzR; assay type: cell-based, Bombyx mori; conditions: HEK293 cells stably transfected with BmCrzR; 1 h pretreatment (H89 10 μM, Go6983 10 μM, U0126 1 μM), then corazonin 1 nM, 5 min
BNGR-A21 (BmCrzR) [4] = experiment: intracellular calcium measurement (fura-2) in Sf21 cells; assay type: cell-based, Bombyx mori; conditions: pretreatment with U73122 10 μM
Experimental: as §1, §2

[5] = molecular target: Bombyx neuropeptide G protein-coupled receptor A21 (BNGR-A21), N-terminal FLAG tag (Bombyx mori) (UniProt B3XXN4); experiment: fluorescent ligand competition binding on whole cells; HEK293 cells stably expressing FLAG-A21 in poly-D-lysine-coated 96-well plates; labeled ligand (Rho-[Lys^4]BmCrz) with buffer or unlabeled ligand in PBS with 0.2% BSA, room temperature 90 min, washed with ice-cold PBS with 0.1% BSA; fluorescence intensity as percentage of total binding
Bombyx neuropeptide G protein-coupled receptor A21 (BNGR-A21), N-terminal FLAG tag (Bombyx mori), sequence (B3XXN4 entry or part of it): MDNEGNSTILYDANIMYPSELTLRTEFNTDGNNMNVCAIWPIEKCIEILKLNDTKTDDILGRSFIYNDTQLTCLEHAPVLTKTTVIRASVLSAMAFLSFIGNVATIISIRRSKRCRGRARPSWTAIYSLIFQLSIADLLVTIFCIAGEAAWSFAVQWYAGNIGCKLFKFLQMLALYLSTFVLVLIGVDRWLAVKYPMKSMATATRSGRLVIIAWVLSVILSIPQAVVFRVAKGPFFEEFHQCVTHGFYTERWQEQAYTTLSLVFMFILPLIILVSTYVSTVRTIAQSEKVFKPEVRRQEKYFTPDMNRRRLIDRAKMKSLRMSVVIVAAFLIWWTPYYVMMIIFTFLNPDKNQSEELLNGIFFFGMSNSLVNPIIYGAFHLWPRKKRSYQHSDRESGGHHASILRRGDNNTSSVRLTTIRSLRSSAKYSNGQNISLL

[6] = molecular target: Bombyx neuropeptide G protein-coupled receptor A21 (BNGR-A21), N-terminal FLAG tag (Bombyx mori) (UniProt B3XXN4)
[7] = molecular target: Bombyx neuropeptide G protein-coupled receptor A21 (BNGR-A21), N-terminal FLAG tag (Bombyx mori) (UniProt B3XXN4); remark: listed apart in the source
BmCrzR (BNGR-A21) [8] = experiment: CRE-driven luciferase assay of rhodamine-labeled corazonin; assay type: cell-based, Bombyx mori; conditions: Fig. 5A; CRE-driven luciferase system; rhodamine red-labeled peptide; read-out: activation of BmCrzR (CRE-driven luciferase), EC50
Experimental: After seeding in a 48-well plate overnight, HEK293 or Sf21 cells transiently or stably cotransfected with BNGR-A21 and pCRE-Luc were grown to 90–95% confluence, stimulated with the corazonin peptides in DMEM without FBS, and incubated for 4–6 h at 37 °C. Luciferase activity was detected by a firefly luciferase assay kit (KenReal, Shanghai, China). The cAMP concentration was assessed using a commercially available cAMP detection kit (R&D Systems).
All results are expressed as the mean ± S.E. Data were analyzed using nonlinear curve fitting (GraphPad Prism version 5.0) to obtain EC50 values. Statistical significance was determined using Student's t test. Probability values that were less than or equal to 0.05 were considered significant.
FIGURE 5. Direct interaction of BNGR-A21 with corazonin. A, rhodamine red-labeled [Lys^4]corazonin activity was assayed using the CRE-driven luciferase system. B, binding of Rho-[Lys^4]BmCrz to BNGR-A21 expressed in HEK293 cells was measured in the presence of different concentrations of unlabeled peptides or in the absence of unlabeled peptides (total binding). The extent of binding was determined by fluorescence intensity and is presented as a percentage of the total binding. The results represent the mean ± S.D. (n = 3).

[9] = molecular target: Bombyx neuropeptide G protein-coupled receptor A21 (BNGR-A21), N-terminal FLAG tag (Bombyx mori) (UniProt B3XXN4); remark: listed apart in the source
CrzR in A. gambiae = system: CrzR in A. gambiae; set-up: method as in PMID 16616003; conditions: cited from earlier work

For `CC(=O)OCOC(=O)CN(CC(=O)OCOC(C)=O)c1ccccc1OCCOc1ccccc1N(CC(=O)OCOC(C)=O)CC(=O)OCOC(C)=O` [BAPTA-AM], the “effect of inhibitor on corazonin-mediated Ca^2+ mobilization” value (“effect of inhibitor” for short) (BNGR-A21 (BmCrzR) [1]) was “sensitive; also recorded: partially impaired” and the “inhibition of BmCrz-induced luciferase activity” value (“inhibition” below) (BNGR-A21 (BmCrzR) [2]) was “significantly inhibited”.
For `O=C(O)CN(CCOCCOCCN(CC(=O)O)CC(=O)O)CC(=O)O` [EGTA], the “effect of inhibitor” value (BNGR-A21 (BmCrzR) [1]) was “sensitive; also recorded: partially impaired” and the “inhibition” value (BNGR-A21 (BmCrzR) [2]) was “significantly inhibited”.
In the case of `COc1ccc2c(c1)c(C1=C(c3c[nH]c4ccccc34)C(=O)NC1=O)cn2CCCN(C)C` [Go6983], the “block of BmCrzR-mediated activation of ERK1/2” value (from here on “block”) (BmCrzR (BNGR-A21) [3]) is reported as “significantly blocked; also recorded: significantly inhibited” and the “inhibition” value (BNGR-A21 (BmCrzR) [2]) is reported as “significantly inhibited”.
In the case of `O=S(=O)(NCCNC/C=C/c1ccc(Br)cc1)c1cccc2cnccc12` [H89], the “block” value (BmCrzR (BNGR-A21) [3]) is reported as “significantly blocked; also recorded: significantly inhibited” and the “inhibition” value (BNGR-A21 (BmCrzR) [2]) is reported as “significantly inhibited; also recorded: sensitive”.
With `N#CC(=C(/N)Sc1ccccc1N)/C(C#N)=C(/N)Sc1ccccc1N` [U0126] the “block” value (BmCrzR (BNGR-A21) [3]) was “significantly blocked; also recorded: significantly inhibited”.
With `COc1ccc2c(c1)CC[C@@H]1[C@@H]2CC[C@]2(C)[C@@H](NCCCCCCN3C(=O)C=CC3=O)CC[C@@H]12` [U73122] the “effect of inhibitor” value (BNGR-A21 (BmCrzR) [1]) was “sensitive; also recorded: significantly blocked”, the “inhibition” value (BNGR-A21 (BmCrzR) [2]) was “significantly inhibited” and the “effect of inhibitor” value (BNGR-A21 (BmCrzR) [4]) was “sensitive”.
With `C=C1C(=O)NC(C)C(=O)N(C)C(C)C(=O)NC(C(OC(=O)C(NC(C)=O)C(O)C(C)C)C(C)C)C(=O)N(C)C(C(C)OC)C(=O)OC(C)C(NC(C)=O)C(=O)OC(Cc2ccccc2)C(=O)N1C` (centres unmarked) [YM-254890] (Ac-T[PhLac][NMeDha]A[NMeA][X1][NMeT](Me); ester 1-C; configuration not given here) the “effect of inhibitor” value (BNGR-A21 (BmCrzR) [1]) was “significant decrease in the intracellular Ca^2+ mobilization; also recorded: significantly blocked” and the “inhibition” value (BNGR-A21 (BmCrzR) [2]) was “significantly inhibited; also recorded: sensitive”.
For `COC(=O)C1=C(C)NC(C)=C(C(=O)OC)C1c1ccccc1[N+](=O)[O-]` [nifedipine], the “effect of inhibitor” value (BNGR-A21 (BmCrzR) [1]) was “sensitive; also recorded: partially impaired”.
For “Bombyx mori corazonin ([Arg^7]corazonin) (peptide)”, the IC50 [5] was 0.49 nM, the ERK1/2 phosphorylation (Western blot), dose response to corazonin, HEK293 cells stably expressing BmCrzR; EC50 [6] was 1.4 nM and the ERK1/2 phosphorylation (Western blot), dose response to corazonin, Sf21 cells expressing BmCrzR; EC50 [6] was 4.7 nM. It also gave a CRE-driven luciferase reporter (cAMP accumulation), dose response to corazonin, HEK293 cells co-transfected with FLAG-A21/CRE-Luc; EC50 [7] of 4.5 nM and a CRE-driven luciferase reporter (cAMP accumulation), dose response to corazonin, Sf21 cells co-transfected with FLAG-A21/CRE-Luc; EC50 [7] of 1 nM.
For “Rho-[Lys^4]BmCrz: Q4K peptide conjugated with rhodamine red at the Lys residue (QTFK(rhodamine red)YSRGWTN; ends and bridges not checked; UniProt Q86N75 20-30, looked up, variant Q4K)”, the EC50 (BmCrzR (BNGR-A21) [8]) was 86.1 nM.
With “Rhodamine red-labeled [Lys^4]BmCrz (peptide)” the CRE-driven luciferase reporter; EC50 [9] was 86.1 nM.
In the case of cholera toxin [CTX], the “effect of stimulation with CTX on cellular levels of cAMP” value (BNGR-A21 (BmCrzR) [2]) is reported as “remarkable increase in the cellular levels of cAMP”.
In the case of “endogenous corazonin: endogenous corazonin of A. gambiae (ref 22) (QTFQYSRGWTN; ends and bridges not checked; UniProt A0NDK8 21-31, looked up)”, the “selectivity of A. gambiae CrzR activation” value (CrzR in A. gambiae) is given as “only be activated by its endogenous corazonin” and the EC50 (CrzR in A. gambiae; read-out: activation of A. gambiae CrzR (cAMP accumulation), EC50) is given as 4 nM.
In the case of pertussis toxin [PTX], the “effect of pretreatment on corazonin-stimulated cAMP generation” value (BNGR-A21 (BmCrzR) [2]) is reported as “no effect on cAMP generation; also recorded: PTX-insensitive”.
